system: Abutilon theophrasti; experiment: Weeding effect in post-emergence stage (greenhouse pot test); format: in vivo; conditions: 15 g a.i./ha, 3 weeks after application
Source text: (§1) The activity level criteria for plant damage (i.e., growth control rate) are as follows:
(§2) Level 5: growth control rate is above 85%;
(§3) Level 4: growth control rate is greater than or equal to 60% and less than 85%;
(§4) Level 3: growth control rate is greater than or equal to 40% and less than 60%;
(§5) Level 2: growth control rate is greater than or equal to 20% and less than 40%;
(§6) Level 1: growth control rate is greater than or equal to 5% and less than 20%;
(§7) Level 0: growth control rate is less than 5%.
(§8) The above growth control rates are fresh weight control rates.
(§9) Experiment on weeding effect in post-emergence stage:
(§10) Monocotyledonous and dicotyledonous weed seeds (Descurainia sophia, Capsella bursa-pastoris, Abutilon theophrasti, Galium aparine, Stellaria media, Lithospermum arvense, Rorippa indica, Alopecurus aequalis, Alopecurus japonicus, Beckmannia syzigachne, Sclerochloa dura, Conyza Canadensis, Phleum paniculatum, Veronica didyma Tenore, Eleusine indica, Bromus japonicus, Aegilops tauschii, Phalaris arundinacea, Amaranthus retroflexus, Chenopodium album, Commelina communis, Sonchus arvensis, Convolvulus arvensis, Cirsium setosum, Solanum nigrum, Acalypha australis, Digitaria sanguinalis, Echinochloa crusgalli, Setaria viridis, Setaria glauca, Leptochloa chinensis, Monochoria vaginalis, Sagittaria trifolia, Scirpus juncoides, Cyperus rotundus, Cyperus iria, Cyperus difformis, Fimbristylis, Portulaca oleracea, Xanthium sibiricum, Pharbitis nil) and major crop seeds (wheat, corn, rice, soybean, cotton, oilseed rape, millet, sorghum, potato, sesame, ricinus) were placed in plastic pots filled with soil, then covered with 0.5-2 cm of soil, allowed to grow in a good greenhouse environment. After 2 weeks of sowing, the test plants were treated in the 2-3 leaf stage. The tested compounds of the present invention were respectively dissolved in acetone, then added with Tween 80 and 1.5 liter/ha of emulsifiable concentrate of methyl oleate as synergist, diluted with a certain amount of water to obtain a solution with a certain concentration, and sprayed with a spray tower onto the plants. After the application, the plants were cultured for 3 weeks in the greenhouse, and then the experimental results of the weeding were counted. The doses of the used compounds were 500, 250, 125, 60, 15 g a.i./ha, and the averages were obtained by repeating for three times.

SMILES | Abutilon theophrasti, activity level (fresh weight growth control rate)
Cn1c(C(F)(F)F)cc(=O)n(-c2cc(-c3ncc(C(=O)OCc4ccccc4)s3)c(Cl)cc2F)c1=O [1-35] | 5 (Level 5: growth control rate is above 85%)
COC(=O)C(C)OC(=O)c1cnc(-c2cc(-n3c(=O)cc(C(F)(F)F)n(C)c3=O)c(F)cc2Cl)s1 (stereo not drawn) [1-48] | 5 (Level 5: growth control rate is above 85%)
CC(C)=NOC(=O)c1cnc(-c2cc(-n3c(=O)cc(C(F)(F)F)n(C)c3=O)c(F)cc2Cl)s1 [1-55] | 5 (Level 5: growth control rate is above 85%)

system: Amaranthus retroflexus; experiment: as above; format: in vivo; conditions: 15 g a.i./ha, 3 weeks after application
Source text: as §1, §2, §3, §4, §5, §6, §7, §8, §9, §10

SMILES | Amaranthus retroflexus, activity level (fresh weight growth control rate)
CCOC(=O)c1csc(-c2cc(-n3c(=O)n(C)c(=S)n(C)c3=O)c(F)cc2Cl)n1 [2-113] | 5 (Level 5: growth control rate is above 85%)
COC(=O)c1nc(-c2cc(-n3c(=O)cc(C(F)(F)F)n(C)c3=O)c(F)cc2Cl)cs1 [4-1] | 5 (Level 5: growth control rate is above 85%)
Cn1c(C(F)(F)F)cc(=O)n(-c2cc(-c3ncc(C(=O)OCc4ccccc4)s3)c(Cl)cc2F)c1=O [1-35] | 5 (Level 5: growth control rate is above 85%)
COC(=O)C(C)OC(=O)c1cnc(-c2cc(-n3c(=O)cc(C(F)(F)F)n(C)c3=O)c(F)cc2Cl)s1 (stereo not drawn) [1-48] | 5 (Level 5: growth control rate is above 85%)
CC(C)=NOC(=O)c1cnc(-c2cc(-n3c(=O)cc(C(F)(F)F)n(C)c3=O)c(F)cc2Cl)s1 [1-55] | 5 (Level 5: growth control rate is above 85%)
COC(=O)c1nc(-c2cc(-n3c(=O)n(C)c(=S)n(C)c3=O)c(F)cc2Cl)cs1 [4-158] | 5 (Level 5: growth control rate is above 85%)

system: Digitaria sanguinalis; experiment: as above; format: in vivo; conditions: 15 g a.i./ha, 3 weeks after application
Source text: as §1, §2, §3, §4, §5, §6, §7, §8, §9, §10

SMILES | Digitaria sanguinalis, activity level (fresh weight growth control rate)
Cn1c(C(F)(F)F)cc(=O)n(-c2cc(-c3ncc(C(=O)OCc4ccccc4)s3)c(Cl)cc2F)c1=O [1-35] | 3 (Level 3: growth control rate is greater than or equal to 40% and less than 60%)
COC(=O)C(C)OC(=O)c1cnc(-c2cc(-n3c(=O)cc(C(F)(F)F)n(C)c3=O)c(F)cc2Cl)s1 (stereo not drawn) [1-48] | 4 (Level 4: growth control rate is greater than or equal to 60% and less than 85%)
CC(C)=NOC(=O)c1cnc(-c2cc(-n3c(=O)cc(C(F)(F)F)n(C)c3=O)c(F)cc2Cl)s1 [1-55] | 5 (Level 5: growth control rate is above 85%)

system: Echinochloa crusgalli; experiment: as above; format: in vivo; conditions: 15 g a.i./ha, 3 weeks after application
Source text: as §1, §2, §3, §4, §5, §6, §7, §8, §9, §10

SMILES | Echinochloa crusgalli, activity level (fresh weight growth control rate)
COC(=O)c1nc(-c2cc(-n3c(=O)cc(C(F)(F)F)n(C)c3=O)c(F)cc2Cl)cs1 [4-1] | 4 (Level 4: growth control rate is greater than or equal to 60% and less than 85%)
Cn1c(C(F)(F)F)cc(=O)n(-c2cc(-c3ncc(C(=O)OCc4ccccc4)s3)c(Cl)cc2F)c1=O [1-35] | 4 (Level 4: growth control rate is greater than or equal to 60% and less than 85%)
COC(=O)C(C)OC(=O)c1cnc(-c2cc(-n3c(=O)cc(C(F)(F)F)n(C)c3=O)c(F)cc2Cl)s1 (stereo not drawn) [1-48] | 5 (Level 5: growth control rate is above 85%)
CC(C)=NOC(=O)c1cnc(-c2cc(-n3c(=O)cc(C(F)(F)F)n(C)c3=O)c(F)cc2Cl)s1 [1-55] | 5 (Level 5: growth control rate is above 85%)

system: Galium aparine; experiment: as above; format: in vivo; conditions: 15 g a.i./ha, 3 weeks after application
Source text: as §1, §2, §3, §4, §5, §6, §7, §8, §9, §10

SMILES | Galium aparine, activity level (fresh weight growth control rate)
CCOC(=O)c1csc(-c2cc(-n3c(=O)n(C)c(=S)n(C)c3=O)c(F)cc2Cl)n1 [2-113] | 5 (Level 5: growth control rate is above 85%)
Cn1c(C(F)(F)F)cc(=O)n(-c2cc(-c3ncc(C(=O)OCc4ccccc4)s3)c(Cl)cc2F)c1=O [1-35] | 5 (Level 5: growth control rate is above 85%)
COC(=O)C(C)OC(=O)c1cnc(-c2cc(-n3c(=O)cc(C(F)(F)F)n(C)c3=O)c(F)cc2Cl)s1 (stereo not drawn) [1-48] | 5 (Level 5: growth control rate is above 85%)
CC(C)=NOC(=O)c1cnc(-c2cc(-n3c(=O)cc(C(F)(F)F)n(C)c3=O)c(F)cc2Cl)s1 [1-55] | 5 (Level 5: growth control rate is above 85%)
COC(=O)c1nc(-c2cc(-n3c(=O)n(C)c(=S)n(C)c3=O)c(F)cc2Cl)cs1 [4-158] | 5 (Level 5: growth control rate is above 85%)

system: Setaria viridis; experiment: as above; format: in vivo; conditions: 15 g a.i./ha, 3 weeks after application
Source text: as §1, §2, §3, §4, §5, §6, §7, §8, §9, §10

SMILES | Setaria viridis, activity level (fresh weight growth control rate)
Cn1c(C(F)(F)F)cc(=O)n(-c2cc(-c3ncc(C(=O)OCc4ccccc4)s3)c(Cl)cc2F)c1=O [1-35] | 5 (Level 5: growth control rate is above 85%)
COC(=O)C(C)OC(=O)c1cnc(-c2cc(-n3c(=O)cc(C(F)(F)F)n(C)c3=O)c(F)cc2Cl)s1 (stereo not drawn) [1-48] | 5 (Level 5: growth control rate is above 85%)
CC(C)=NOC(=O)c1cnc(-c2cc(-n3c(=O)cc(C(F)(F)F)n(C)c3=O)c(F)cc2Cl)s1 [1-55] | 5 (Level 5: growth control rate is above 85%)

system: Veronica didyma Tenore; experiment: as above; format: in vivo; conditions: 15 g a.i./ha, 3 weeks after application
Source text: as §1, §2, §3, §4, §5, §6, §7, §8, §9, §10

SMILES | Veronica didyma Tenore, activity level (fresh weight growth control rate)
CCOC(=O)c1csc(-c2cc(-n3c(=O)n(C)c(=S)n(C)c3=O)c(F)cc2Cl)n1 [2-113] | 5 (Level 5: growth control rate is above 85%)
COC(=O)c1nc(-c2cc(-n3c(=O)cc(C(F)(F)F)n(C)c3=O)c(F)cc2Cl)cs1 [4-1] | 5 (Level 5: growth control rate is above 85%)
Cn1c(C(F)(F)F)cc(=O)n(-c2cc(-c3ncc(C(=O)OCc4ccccc4)s3)c(Cl)cc2F)c1=O [1-35] | 5 (Level 5: growth control rate is above 85%)
COC(=O)C(C)OC(=O)c1cnc(-c2cc(-n3c(=O)cc(C(F)(F)F)n(C)c3=O)c(F)cc2Cl)s1 (stereo not drawn) [1-48] | 5 (Level 5: growth control rate is above 85%)
CC(C)=NOC(=O)c1cnc(-c2cc(-n3c(=O)cc(C(F)(F)F)n(C)c3=O)c(F)cc2Cl)s1 [1-55] | 5 (Level 5: growth control rate is above 85%)
COC(=O)c1nc(-c2cc(-n3c(=O)n(C)c(=S)n(C)c3=O)c(F)cc2Cl)cs1 [4-158] | 5 (Level 5: growth control rate is above 85%)

Source: patent US20230015308A1, “SUBSTITUTED THIAZOLE AROMATIC RING-BASED COMPOUND AND PREPARATION METHOD THEREFOR, HERBICIDAL COMPOSITION AND USE THEREOF” (QINGDAO KINGAGROOT CHEMICAL COMPOUND CO., LTD., priority 2019, published 2023)
